Tests used:
Experiment in all cases: relative viability (nuclei count vs DMSO), 5 days (fraction); higher = more cells survive
Palbociclib + Navitoclax = compound: CC(=O)c1c(C)c2cnc(Nc3ccc(N4CCNCC4)cn3)nc2n(C2CCCC2)c1=O [Palbociclib] + CC1(C)CCC(c2ccc(Cl)cc2)=C(CN2CCN(c3ccc(C(=O)NS(=O)(=O)c4ccc(N[C@H](CCN5CCOCC5)CSc5ccccc5)c(S(=O)(=O)C(F)(F)F)c4)cc3)CC2)C1 [Navitoclax] (partner 0.5 µM)
How it was run: (§1)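 Lung cancer cell lines were seeded in 1536-well plates and dosed by pin tool the next day, with either a single drug or a fixed anchor-drug dose combined with five library-drug doses (not always all listed) spaced in √10 steps. Five days later, one step fixed the cells and stained their nuclei (final 0.05% Triton X-100, 1% formaldehyde, 1 ug/ml Hoechst), and nuclei were counted on 4× images. Relative viability is the nuclei count in treated wells divided by the count in vehicle wells, and each value is the median of duplicate plates.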

Palbociclib + OSI-027 = compound: CC(=O)c1c(C)c2cnc(Nc3ccc(N4CCNCC4)cn3)nc2n(C2CCCC2)c1=O [Palbociclib] + COc1cccc2cc(-c3nc([C@H]4CC[C@H](C(=O)O)CC4)n4ncnc(N)c34)[nH]c12 [OSI-027] (partner 0.5 µM)
How it was run: as §1

Palbociclib + Pictilisib = compound: CC(=O)c1c(C)c2cnc(Nc3ccc(N4CCNCC4)cn3)nc2n(C2CCCC2)c1=O [Palbociclib] + CS(=O)(=O)N1CCN(Cc2cc3nc(-c4cccc5[nH]ncc45)nc(N4CCOCC4)c3s2)CC1 [Pictilisib] (partner 1 µM)
How it was run: as §1

Palbociclib + Linsitinib = compound: CC(=O)c1c(C)c2cnc(Nc3ccc(N4CCNCC4)cn3)nc2n(C2CCCC2)c1=O [Palbociclib] + C[C@]1(O)C[C@@H](c2nc(-c3ccc4ccc(-c5ccccc5)nc4c3)c3c(N)nccn32)C1 [Linsitinib] (partner 1 µM)
How it was run: as §1

Row | Cell Line | relative viability (Palbociclib + Navitoclax; first compound 0.01 µM) | relative viability (Palbociclib + Navitoclax; first compound 0.1 µM) | relative viability (Palbociclib + Navitoclax; first compound 0.3162 µM) | relative viability (Palbociclib + Navitoclax; first compound 1 µM) | relative viability (Palbociclib + OSI-027; first compound 0.01 µM) | relative viability (Palbociclib + OSI-027; first compound 0.03162 µM) | relative viability (Palbociclib + OSI-027; first compound 0.1 µM) | relative viability (Palbociclib + OSI-027; first compound 0.3162 µM) | relative viability (Palbociclib + OSI-027; first compound 1 µM) | relative viability (Palbociclib + Pictilisib; first compound 0.01 µM) | relative viability (Palbociclib + Pictilisib; first compound 0.1 µM) | relative viability (Palbociclib + Pictilisib; first compound 0.3162 µM) | relative viability (Palbociclib + Pictilisib; first compound 1 µM) | relative viability (Palbociclib + Linsitinib; first compound 0.01 µM) | relative viability (Palbociclib + Linsitinib; first compound 0.1 µM) | relative viability (Palbociclib + Linsitinib; first compound 0.3162 µM) | relative viability (Palbociclib + Linsitinib; first compound 1 µM) | relative viability (Palbociclib + Navitoclax; first compound 0.03162 µM) | relative viability (Palbociclib + Pictilisib; first compound 0.03162 µM) | relative viability (Palbociclib + Linsitinib; first compound 0.03162 µM)
1 | NCI-H1355 | 0.943 | 0.772 | 0.755 | 0.597 | 0.45 | 0.359 | 0.33 | 0.282 | 0.24 | 0.449 | 0.23 | 0.273 | 0.241 | 0.807 | 0.754 | 0.687 | 0.549 | – | – | –
2 | COR-L23 | 0.977 | 0.681 | 0.544 | 0.477 | 0.763 | 0.6 | 0.491 | 0.521 | 0.39 | 0.772 | 0.503 | 0.463 | 0.328 | 0.9 | 0.637 | 0.552 | 0.344 | 0.759 | 0.655 | 0.844
3 | NCI-H1915 | 0.764 | 0.771 | 0.782 | 0.763 | 0.628 | 0.426 | 0.511 | 0.513 | 0.407 | 0.875 | 0.846 | 0.808 | 0.621 | 1.11 | 1.07 | 1.01 | 0.947 | 0.733 | 0.504 | 1.04
4 | NCI-H2126 | 0.861 | 0.743 | 0.745 | 0.561 | 0.694 | 0.53 | 0.443 | 0.441 | 0.378 | 0.502 | 0.444 | 0.402 | 0.328 | 0.736 | 0.693 | 0.598 | 0.428 | 0.848 | 0.475 | 0.706
5 | HCC-15 | 0.672 | 0.622 | 0.641 | 0.529 | 0.677 | – | 0.549 | 0.54 | 0.426 | 0.71 | 0.617 | 0.591 | 0.603 | 0.966 | 0.832 | 0.755 | 0.726 | – | – | –
6 | NCI-H838 | 1.16 | 0.859 | 0.938 | 0.423 | 0.318 | 0.348 | 0.308 | 0.317 | 0.185 | 0.393 | 0.307 | 0.348 | 0.197 | 1.07 | 0.708 | 0.82 | 0.494 | 1.03 | 0.329 | 0.96
7 | LOU-NH91 | 0.721 | 0.457 | 0.505 | 0.462 | 0.706 | 0.587 | 0.46 | 0.505 | 0.44 | 0.547 | 0.484 | 0.465 | 0.446 | 1.02 | 0.668 | 0.6 | 0.605 | 0.491 | 0.479 | 0.79
8 | LXF-289 | 0.94 | 0.937 | 0.83 | 0.772 | 0.815 | 0.411 | 0.697 | 0.734 | 0.561 | 0.752 | 0.642 | 0.69 | 0.474 | 0.914 | 0.99 | 0.88 | 0.734 | 0.94 | 0.807 | 0.959
9 | NCI-H1666 | 0.929 | 0.792 | 0.544 | 0.448 | 0.831 | 0.672 | 0.682 | 0.747 | 0.471 | 0.477 | 0.345 | 0.297 | 0.277 | 0.868 | 0.634 | 0.619 | 0.37 | 0.782 | 0.386 | 0.751
10 | NCI-H460 | 1.08 | 0.912 | 0.662 | 0.175 | 0.708 | 0.531 | 0.366 | 0.376 | 0.159 | 0.465 | 0.268 | 0.318 | 0.182 | 0.903 | 0.483 | 0.288 | 0.117 | 0.944 | 0.302 | 0.529
11 | SW 1573 | 0.986 | 0.838 | 0.642 | 0.439 | 0.662 | 0.468 | 0.389 | 0.357 | 0.235 | 0.447 | 0.322 | 0.327 | 0.289 | 0.69 | 0.639 | 0.669 | 0.5 | 1 | 0.389 | 0.733
12 | NCI-H2228 | 0.99 | 0.729 | 0.856 | 0.827 | 0.529 | 0.373 | 0.389 | 0.492 | 0.48 | 0.298 | 0.289 | 0.358 | 0.482 | 0.51 | 0.674 | 0.598 | 0.83 | 1.01 | 0.351 | 0.573

— the supplement of paper PMC10307832
